This note sets out measurements from US6927234B2, “Xanthone derivatives, method of production thereof, and pharmaceutical composition containing the same” (Kuboyama Bio Ken Inc., priority 2003, dated 2005).

For data set [1], the system named is Sarcoma 180. As to the kind of experiment: Sarcoma 180 assay, oral gavage for five days, sacrifice on Day 10 (Example 4). Format: in vivo, Swiss-Webster mice. The settings on record: for % Tumor Inhibition: sacrificed Day 10, female mice. As to the method: (§1) The compound obtained in Example 1 was dissolved in ethyl alcohol at 10 mg/ml. Dilutions of this stock solution were made to 100, 10 and 1 mcg per kilo body weight of the mice. The Sarcoma 180 assay was carried out as described below.
The tumor stock was a Sarcoma 180 which was started in the laboratory from an American Type Culture Collection. This stock culture has been passed at weekly intervals as an ascites in non-treated Swiss-Webster mice.
(§2) The current studies were all carried out with Swiss-Webster mice obtained from Animal Technologics Ltd., Kent, Wash. To prepare the inoculum, the ascites fluid from a mouse with a 7-10 day ascites is aspirated using a sterile technique. Once a cell count is established, the tumor cells are diluted with normal saline or phosphate buffered saline to obtain a final concentration of 1 to 2×10^6 cells per mm^3. This is the tumor suspension that is then injected into the mice. The final dilution is plated on trypticase soy agar to determine if it is free of contamination.
One tenth (0.1 ml) of the above suspension is inoculated into the left hind leg muscle (hamstring muscle mass) of each mouse. The inoculated mice are placed into one large cage and then randomly segregated into groups of five mice. The mice are housed in shoe box cages on wood shavings with free access to water and laboratory chow. The mice are weighed on the day of inoculation, on day 7, day 10, and at time of sacrifice.
Treatment of the mice was initiated the day after transplant and then continued for five days.
At the end of the observation period, 10 days, the mice are sacrificed either by cervical dislocation or ether anesthesia. The skin over the left hind leg is removed to expose the tumor and the leg and tumor are removed at the hip joint. Any residual skin is removed and the legs with tumors are weighed individually. Ten normal legs (right legs) are prepared in a similar manner and weighed. The mean value of the normal leg is subtracted from the weight of the leg with the tumor to give an estimate of the actual tumor weight.

In data set [2] the test system is Sarcoma 180. As to the kind of experiment: Sarcoma 180 assay, oral dosing, 12-day treatment period (Example 5). Format: in vivo, Swiss-Webster mice. To be noted: 12 days treatment; for % Tumor Inhibition / Body wt. G (avg.): oral gavage. As to the method:
as §1
The tumor stock was a Sarcoma 180, which was started in the laboratory from an American Type Culture Collection. This stock culture has been passed at weekly intervals as an ascites in non-treated Swiss-Webster mice.
as §2, with “7-12” for “7-10”, “sterile technique. The tumor cells are checked for viability using the trypan-blue staining” for “sterile”
One tenth (0.1 ml) of the above suspension is inoculated into the left hind leg muscle (hamstring muscle mass) of each mouse. The inoculated mice are placed into one large cage and then randomly segregated into groups of five mice. The mice are housed in shoe box cages on wood shavings with free access to water and laboratory chow. The mice are weighed on the day of inoculation, on day 7, day 12, and at time of sacrifice.
Treatment of the mice was initiated the day after transplant. The treatment period was 12 days.
At the end of the observation period, the mice are sacrificed by ether anesthesia. The skin over the left hind leg is removed to expose the tumor and the leg and tumor are removed at the hip joint. Any residual skin is removed and the legs with tumors are weighed individually. Ten normal legs (right legs) are prepared in a similar manner and weighed. The mean value of the normal leg is subtracted from the weight of the leg with the tumor to give an estimate of the actual tumor weight. [formula]

Data set [3] deals with adjuvant-induced arthritis. Type of data set: in vivo, Sprague-Dawley rats. The settings on record: gavage once per day for 7 days; for Rat paw wt.: five rats per group. As for the experimental part: Adjuvant-induced arthritis responds to both steroids and non-steroids. The degree of inflammation is assessed by measuring differences in foot weight and/or the foot volume.
Rats weighing between 150-200 g were purchased from ATL, in Kent Wash. They were male Sprague-Dawley rats. The animals were kept individually in stainless steel cages with free access to water and feed (Harlan Teklan Rodent Diet). The light cycle was maintained at 12 hours light and 12 hours dark. The temperature was maintained at 22° C.±3° C. with a relative humidity of 40 to 70%.
[…] The test compound and hydrocortisone were given by gavage.
The test materials were delivered orally (by gavage) once per day for 7 days.
Male Sprague-Dawley rats (150-200 g) were sensitized by injecting Fruend's complete adjuvant (0.5% suspension of killed mycobacterium tuberculosis (H37RA, Difco, in mineral oil)). A 0.1 ml aliquot was administered intradermally at a plantar site on the right hind leg of each rat.
The test materials were given orally (by gavage) to each of 5 rats per treatment group once per day for 7 days. Administration of the test materials was initiated on the day of sensitization.
The left hind paw was measured just before sensitization an again on Day 7. The plantar edema inhibitory rate and the body weight gain were determined by comparison with the non-sensitized rat groups.
The paw weights for each rat group were averaged. Anti-inflammatory activity was determined by comparing paw weights calculated as follows: [formula]

The test system of data set [4] is Sarcoma 180. As to the kind of experiment: Sarcoma 180 assay, single intraperitoneal dose (Example 7). Format: in vivo, Swiss-Webster mice. From the text: [table] [table] The tumor stock was a Sarcoma 180 which was started in the laboratory from an American Type Culture Collection. This stock culture has been passed at weekly intervals as an ascites in non-treated Swiss-Webster mice. The current studies were all carried out with Swiss-Webster mice obtained from Animal Technologics Ltd., Kent, Wash. To prepare the inoculum, the ascites fluid from a mouse with a 7-10 day ascites is aspirated using a sterile technique. […] This was the tumor suspension that was then injected into the mice. The final dilution was plated on trypticase soy agar to determine if it was free of contamination. One tenth (0.1 ml) of the above suspension was inoculated into the left hind leg muscle (hamstring muscle mass) of each mouse. The inoculated mice were placed into one large cage and then randomly segregated into groups of five mice. The mice were housed in shoe box cages on wood shavings with free access to water and laboratory chow. The mice were weighed on the day of inoculation, on day 7, day 10, and at time of sacrifice. Treatment of the mice was initiated the day after transplant. At the end of the observation period, the mice were sacrificed by ether anesthesia. The skin over the left hind leg was removed to expose the tumor and the leg and tumor were removed at the hip joint. Any residual skin was removed and the legs with tumors were weighed individually. Ten normal legs (right legs) were prepared in a similar manner and weighed. The mean value of the normal leg was subtracted from the weight of the leg with the tumor to give an estimate of the actual tumor weight: […]

[5] abbreviates: 1 mg/kg, single dose intraperitoneally.
Setting [6] is: 10 mg/kg, single dose intraperitoneally.
Setting [7] is: 100 mg/kg, single dose intraperitoneally.

Read-outs that look alike come from different tables or passages of the source. Marks after values point to notes of the source that are not given here.

As for `O=C(O)Cc1c2cc[nH]c2cc2c(=O)c3ccccc3oc12` [Compound of Example 1], the “% Tumor Inhibition” value is 43% in the data set with Sarcoma 180 [1] (1 mcg/kg); 100% in the data set with Sarcoma 180 [1] (10 mcg/kg); 100% with Sarcoma 180 [1] (100 mcg/kg); 98.5* % in the data set with Sarcoma 180 [2] (1 mcg/kg); 100* % in the data set with Sarcoma 180 [2] (10 mcg/kg). The “toxicity as indicated by the body weights” value in the data set on Sarcoma 180 [1] (any dose (1, 10, 100 mcg/kg)) was “No toxicity”. The “toxicity from final body weights” value in the data set with Sarcoma 180 [2] (1 and 10 mcg/kg, oral) is “not toxic”. Further, the visible tumor result in the data set on Sarcoma 180 [2] (1 and 10 mcg/kg, oral) is “no visible tumor”. Also, the figures for the “Body wt. G (avg.)” value in the data set with Sarcoma 180 [2] (1 mcg/kg) and with Sarcoma 180 [2] (10 mcg/kg) were 29.2 G and 28.7 G, respectively. The “% Inhibition (rat paw inflammation)” value in data set [3] (1 mcg/kg body wt.) worked out at 95.2%. The “Rat paw wt.” value in data set [3] (1 mcg/kg body wt.) stood at 0.324 g.

`C[C@]12CCC(=O)C=C1CC[C@@H]1[C@@H]2[C@@H](O)C[C@@]2(C)[C@H]1CC[C@]2(O)C(=O)CO` [hydrocortisone]: in data set [3] (10 mg/kg body wt.), the “% Inhibition (rat paw inflammation)” value was 42% and the “Rat paw wt.” value was determined as 0.98 g.

For the compound `O=c1c2ccccc2oc2ccccc12` [Compound of Example 3, Xanthone], the “% Inhibition” value came out at 80% in the data set with Sarcoma 180 [4] (setting [5]), 100% in the data set on Sarcoma 180 [4] (setting [6]) and 100% in the data set with Sarcoma 180 [4] (setting [7]). In addition, the entries for the “Net Tumor wt.” value in the data set on Sarcoma 180 [4] (setting [5]), with Sarcoma 180 [4] (setting [6]) and with Sarcoma 180 [4] (setting [7]) were 0.3 g, 0 g and 0 g, respectively. Moreover, the evidence of tumor entry in the data set with Sarcoma 180 [4] (10 and 100 mg/kg body weight, single dose intraperitoneally) is “no evidence of tumor”. The Body weight with Sarcoma 180 [4] (Day 1, 1 mg/kg single ip) turned out to be 24.2 g; in the data set on Sarcoma 180 [4] (Day 1, 10 mg/kg single ip) it was 23.8 g; with Sarcoma 180 [4] (Day 1, 100 mg/kg single ip), 23.4 g; with Sarcoma 180 [4] (Day 7, 1 mg/kg single ip), 26 g; in the data set on Sarcoma 180 [4] (Day 7, 10 mg/kg single ip), 26.1 g; in the data set with Sarcoma 180 [4] (Day 7, 100 mg/kg single ip), 26.2 g. Further, the Body weight with Sarcoma 180 [4] (Day 10, 1 mg/kg single ip) stood at 26.2 g; in the data set on Sarcoma 180 [4] (Day 10, 10 mg/kg single ip), 26.4 g; in the data set with Sarcoma 180 [4] (Day 10, 100 mg/kg single ip) it was 26.5 g.

A word on the % Inhibition: it is the drop in the measured response relative to a control, in per cent. The low end stands for little suppression, the high end for strong suppression.
